Laboratory results from US4879370A, “Glutathione delivery system” (Cornell Research Foundation, Inc., priority 1985, dated 1989).

Legend:
[1] = tested on: GSH level in the liver and in the kidney; test: GSH level in liver and kidney of starved mice, time course (Example 6); format: in vivo; conditions: mice starved 24 hours, 10 mmol/kg i.p., 2 to 3 hours after the administration
Description: The test compound was dissolved in sterile water to give a test solution. Groups of 3 mice, each having a body weight of 20 to 25 g, were starved over a period of 24 hours and treated intraperitoneally with a dose of 10 mmol/kg of the test compound. Mice were dissected by every two hours, and the liver and kidney were taken out. GSH analysis was performed on each of the organs.

[2] = tested on: mice treated with lethal dose of acetaminophen; test: Survival of starved mice after lethal dose of acetaminophen (Example 8); format: in vivo; conditions: acetaminophen 5 mmol/kg i.p., test compound 10 mmol/kg one hour later, 15 mice
Text: Starved mice were intraperitoneally treated with 5 mmol/kg (lethal dose) of acetaminophen and, one hour later, with 10 mmol/kg of the test compound.

[3] = tested on: glutathione levels of the liver and kidney; test: Liver and kidney glutathione levels of fasted mice given glutathione ester or glutathione (Example 1, Comparative Example 1); format: in vivo
Description: A solution of the glutathione ester was prepared in aseptic water. […] At intervals of 2 hours, as shown in FIGS. 1(a) and (b), the animals were decapitated and the liver and kidney tissues were removed and analyzed for glutathione. Using groups of 3 mice each, values are given as means±S.D.

[4] = tested on: glutathione levels of the liver and kidney; test: Liver and kidney glutathione levels of mice pretreated with buthionine sulfoximine (Example 2); format: in vivo; conditions: 2 mmol/kg buthionine sulfoximine
Text: Controls were again given saline, with tissue levels of GSH being determined at the indicated intervals. Values are means±S.D., using groups of 3 mice each.

[5] = tested on: mice given a lethal dose of acetaminophen; conditions: acetaminophen 5 mmole per kilogram, ester 10 mmole per kilogram 1 hour later, 15 mice
[6] = mice fasted 24 hours, intraperitoneal 10 millimoles per kilogram, 2 hours after administration, vs 0.15M NaCl controls

Row | SMILES | GSH level in the kidney [1] | GSH level in the liver [1] | survival after 7 days [2] | further results
1 | CCCCCCOC(=O)CNC(=O)[C@H](CS)NC(=O)CC[C@H](N)C(=O)O [GSH mono-n-hexyl ester, n-Hexyl γ-L-glutamyl-L-cysteinylglycinate] | substantial elevation | substantial elevation | survived and were recovered clearly after 7 days | 
2 | CC(C)COC(=O)CNC(=O)[C@H](CS)NC(=O)CC[C@H](N)C(=O)O [GSH monoisobutyl ester, Isobutyl γ-L-glutamyl-L-cysteinylglycinate] | substantial elevation | substantial elevation | survived and were recovered clearly after 7 days | 
3 | CC(C)OC(=O)CNC(=O)[C@H](CS)NC(=O)CC[C@H](N)C(=O)O [GSH monoisopropyl ester, Isopropyl γ-L-glutamyl-L-cysteinylglycinate] | substantial elevation | substantial elevation | survived and were recovered clearly after 7 days | 
4 | N[C@@H](CCC(=O)N[C@@H](CS)C(=O)NCC(=O)O)C(=O)O [GSH, L-γ-glutamyl-L-cysteinyl-glycine, reference compound] | slight elevation | No elevation |  | glutathione level of the kidney [3, 6]: only a slight effect
5 | CCCCS(=N)(=O)CCC(N)C(=O)O (centres unmarked) [buthionine sulfoximine] |  |  |  | glutathione levels of the liver and kidney after the inhibitor [4]: decreased to a very low value
6 | CCOC(=O)CNC(=O)[C@H](CS)NC(=O)CC[C@H](N)C(=O)O [glutathione monoethyl ester, L-γ-Glutamyl-L Cysteinyl Glycyl Ethyl Ester] |  |  |  | effects on liver and kidney glutathione levels compared with glutathione monomethyl ester ([3]; fasted mice, as Example 1): about the same
7 | COC(=O)CNC(=O)[C@H](CS)NC(=O)CC[C@H](N)C(=O)O [glutathione monomethyl ester] |  |  |  | glutathione level of the kidney [3, 6]: increased substantially; glutathione level of the liver [3, 6]: increased substantially; fatalities / survival at 7 days [5]: no fatalities were observed
